Results as given in the NIST ThermoML archive (doi:10.1016/j.jct.2012.10.004).

Settings: Liquid, Vibrating tube method

CCCC[N+]1(C)CCCC1.O=S(=O)([N-]S(=O)(=O)C(F)(F)F)C(F)(F)F
mass density [kg/m3]
Settings	100 kPa	1000 kPa	10000 kPa	20000 kPa	40000 kPa	60000 kPa	80000 kPa	100000 kPa	120000 kPa
278.15 K	1415.1	1415.7	1421.5	1428	1439.8	1450.6	1460.8	1470.2	1479.1
298.15 K	1395.2	1395.8	1401.8	1408.4	1420.7	1432.2	1442.8	1452.9	1462.9
313.15 K	1381.6	1382.3	1388.8	1395.8	1408.7	1420.7	1431.6	1441.8	1451.8
333.15 K	1364	1364.7	1371.6	1379	1392.6	1405.2	1416.6	1427.4	1437.6
348.15 K	1351.1	1351.8	1359.1	1366.9	1381.1	1394	1405.9	1416.9	1427.5
373.15 K	1330.5	1330.8	1338.6	1347	1362.2	1375.9	1388.3	1399.9	1410.9
398.15 K	1307.8	1308.7	1316.4	1325.3	1341.7	1356.3	1369.7	1382	1393.5
